ΔTm data for 3 compounds are collected here from publication doi:10.1101/2023.12.04.569845, “Identification of 4-(6-((2-methoxyphenyl)amino)pyrazin-2-yl)benzoic acids as CSNK2A inhibitors with antiviral activity and improved selectivity over PIM3” (bioRxiv, 2023).

Like-named read-outs stand apart in the source and are kept apart here.

Holding throughout (test): biochemical
Holding throughout (parameters): Thermal shift (DSF, SYPRO Orange) Tm shift of recombinant kinase domains at 10 uM compound

The target in one assay is T1, JNK1 (Homo sapiens, UniProt P45983).
T1 construct: gene MAPK8
T1 sequence (P45983 whole entry): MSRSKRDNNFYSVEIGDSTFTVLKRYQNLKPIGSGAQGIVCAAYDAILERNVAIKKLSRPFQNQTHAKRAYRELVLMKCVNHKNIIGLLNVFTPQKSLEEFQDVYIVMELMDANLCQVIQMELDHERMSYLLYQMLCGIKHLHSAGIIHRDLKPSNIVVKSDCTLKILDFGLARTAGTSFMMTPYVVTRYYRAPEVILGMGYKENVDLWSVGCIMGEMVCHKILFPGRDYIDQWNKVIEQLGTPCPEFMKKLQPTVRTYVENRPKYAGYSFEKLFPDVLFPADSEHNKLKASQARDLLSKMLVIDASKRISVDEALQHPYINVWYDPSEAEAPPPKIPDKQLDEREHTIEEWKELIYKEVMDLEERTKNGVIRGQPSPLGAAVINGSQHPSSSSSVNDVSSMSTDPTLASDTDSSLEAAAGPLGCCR

The next assay addresses AURKB (Homo sapiens, UniProt Q96GD4).
The target of the next assay is MAP2K1 (Homo sapiens, UniProt Q02750).
Chain of MAP2K1 (Q02750 whole entry): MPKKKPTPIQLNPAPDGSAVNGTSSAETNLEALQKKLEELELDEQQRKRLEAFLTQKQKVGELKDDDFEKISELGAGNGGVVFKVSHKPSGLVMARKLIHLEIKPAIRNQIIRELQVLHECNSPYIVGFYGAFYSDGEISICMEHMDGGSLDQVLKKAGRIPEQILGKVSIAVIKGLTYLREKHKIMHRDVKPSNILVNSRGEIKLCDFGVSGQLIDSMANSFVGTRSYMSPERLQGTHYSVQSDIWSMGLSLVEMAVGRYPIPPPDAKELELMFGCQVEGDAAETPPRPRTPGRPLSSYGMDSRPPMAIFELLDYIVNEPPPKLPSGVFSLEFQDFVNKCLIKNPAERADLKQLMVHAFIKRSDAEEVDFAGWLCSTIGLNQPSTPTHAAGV
The target of another assay is T2, ULK1 (Homo sapiens, UniProt O75385).
T2 sequence (O75385 1-1050): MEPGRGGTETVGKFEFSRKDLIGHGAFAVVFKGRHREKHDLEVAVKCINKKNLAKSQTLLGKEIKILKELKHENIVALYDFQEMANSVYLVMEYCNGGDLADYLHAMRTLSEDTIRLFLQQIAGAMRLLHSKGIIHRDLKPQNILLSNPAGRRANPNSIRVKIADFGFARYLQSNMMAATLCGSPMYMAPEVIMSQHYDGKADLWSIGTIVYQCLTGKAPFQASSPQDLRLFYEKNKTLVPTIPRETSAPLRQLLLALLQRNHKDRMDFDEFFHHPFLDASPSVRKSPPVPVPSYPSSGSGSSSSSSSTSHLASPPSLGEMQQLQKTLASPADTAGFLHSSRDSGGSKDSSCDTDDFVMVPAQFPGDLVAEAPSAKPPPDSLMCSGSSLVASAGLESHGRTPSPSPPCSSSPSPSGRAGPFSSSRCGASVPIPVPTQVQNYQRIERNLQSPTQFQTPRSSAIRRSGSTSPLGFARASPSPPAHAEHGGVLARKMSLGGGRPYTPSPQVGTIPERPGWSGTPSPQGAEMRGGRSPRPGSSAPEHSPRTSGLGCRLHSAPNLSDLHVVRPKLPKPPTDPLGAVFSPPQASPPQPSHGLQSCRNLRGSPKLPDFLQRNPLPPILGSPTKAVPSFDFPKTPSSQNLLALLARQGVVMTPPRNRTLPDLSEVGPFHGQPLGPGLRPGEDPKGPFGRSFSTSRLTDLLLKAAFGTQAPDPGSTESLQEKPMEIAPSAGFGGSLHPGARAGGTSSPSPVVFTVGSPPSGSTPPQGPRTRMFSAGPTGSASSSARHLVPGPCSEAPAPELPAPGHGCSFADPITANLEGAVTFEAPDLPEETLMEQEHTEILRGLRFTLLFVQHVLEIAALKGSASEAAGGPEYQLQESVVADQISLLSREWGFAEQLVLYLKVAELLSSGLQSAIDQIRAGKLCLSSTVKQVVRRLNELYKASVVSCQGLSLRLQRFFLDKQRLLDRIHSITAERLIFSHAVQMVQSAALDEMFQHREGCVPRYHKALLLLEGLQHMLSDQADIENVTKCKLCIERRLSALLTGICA

A further assay concerns the target T3, DRAK2 (Homo sapiens, UniProt O94768).
T3 construct: gene STK17B
T3 sequence (O94768 1-372): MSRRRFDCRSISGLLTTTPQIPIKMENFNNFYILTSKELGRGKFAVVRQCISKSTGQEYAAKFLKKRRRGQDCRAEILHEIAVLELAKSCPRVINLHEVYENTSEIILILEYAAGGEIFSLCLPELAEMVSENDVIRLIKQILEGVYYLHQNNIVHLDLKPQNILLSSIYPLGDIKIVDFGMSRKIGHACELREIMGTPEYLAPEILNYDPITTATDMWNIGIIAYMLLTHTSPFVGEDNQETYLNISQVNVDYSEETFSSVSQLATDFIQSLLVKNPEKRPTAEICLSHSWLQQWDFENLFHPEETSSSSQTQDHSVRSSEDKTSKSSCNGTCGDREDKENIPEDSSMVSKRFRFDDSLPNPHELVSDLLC

In another assay the target is T4, p38d (Homo sapiens, UniProt O15264).
T4 construct: gene MAPK13
T4 sequence (O15264 1-365): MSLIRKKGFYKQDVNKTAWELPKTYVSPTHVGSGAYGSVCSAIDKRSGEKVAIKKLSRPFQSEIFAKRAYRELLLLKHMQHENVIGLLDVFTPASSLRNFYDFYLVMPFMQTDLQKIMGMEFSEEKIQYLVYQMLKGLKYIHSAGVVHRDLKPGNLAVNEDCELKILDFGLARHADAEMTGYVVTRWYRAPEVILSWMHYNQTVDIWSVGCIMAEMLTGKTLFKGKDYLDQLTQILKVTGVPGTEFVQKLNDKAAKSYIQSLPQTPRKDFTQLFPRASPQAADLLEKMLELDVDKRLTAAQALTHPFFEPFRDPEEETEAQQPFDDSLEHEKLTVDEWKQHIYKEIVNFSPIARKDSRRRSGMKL

Chain of AURKB (Q96GD4 whole entry): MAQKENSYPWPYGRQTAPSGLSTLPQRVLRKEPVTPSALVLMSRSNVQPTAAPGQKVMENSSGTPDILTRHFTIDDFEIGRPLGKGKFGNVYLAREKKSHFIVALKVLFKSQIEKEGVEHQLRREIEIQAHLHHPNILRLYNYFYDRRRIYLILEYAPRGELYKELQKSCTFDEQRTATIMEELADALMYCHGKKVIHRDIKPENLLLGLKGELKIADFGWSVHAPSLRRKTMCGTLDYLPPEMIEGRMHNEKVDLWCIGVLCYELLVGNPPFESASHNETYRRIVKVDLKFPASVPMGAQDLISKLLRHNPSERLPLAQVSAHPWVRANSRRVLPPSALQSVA

With `CC(C)Oc1ccc2ccn(-c3cncc(-c4ccc(C(=O)O)cc4)n3)c2c1` [6c], the ΔTm at 10 µM on JNK1 (read-out: 6c) was 3 °C; at AURKB (read-out: 6c), 4 °C; on MAP2K1 (read-out: 6c), 1 °C; at ULK1 (read-out: 6c), 2 °C; on DRAK2 (read-out: 6c) it was 2 °C; on p38d (read-out: 6c), 1 °C.
Turning to `COc1ccc(OC(C)C)cc1Nc1cncc(-c2ccc(C(=O)O)cc2)n1` [7c], the ΔTm at 10 µM was found to be 1 °C on JNK1 (read-out: 7c); 2 °C at AURKB (read-out: 7c); 1 °C at MAP2K1 (read-out: 7c); 1 °C at ULK1 (read-out: 7c); 0 °C at DRAK2 (read-out: 7c); 0 °C on p38d (read-out: 7c).
As to `CC(C)Nc1ccc2cnn(-c3cncc(-c4ccc(C(=O)O)cc4)n3)c2c1` [compound 2, 2], the ΔTm at 10 µM is 6 °C on JNK1 (read-out: 2); 4 °C on AURKB (read-out: 2); 2 °C on MAP2K1 (read-out: 2); 3 °C at ULK1 (read-out: 2); 3 °C at DRAK2 (read-out: 2); 0 °C on p38d (read-out: 2).
